The source of these data is US9611281B2, “BODIPY derivatives and methods of synthesis and use thereof” (The Board of Regents of the University of Oklahoma, priority 2013, dated 2017).

Data set [1] in a line: Optical properties (absorption, emission, extinction coefficient) of BDP635 and derivative SBDPiRs. The data set is classed as physicochemical.
The subject of a further data set is colon-26 tumor model. As to the kind of experiment: In vivo PDT response following SBDPiR690 treatment. On the set-up: species or system Balb/c mice. The method, then:
25 animals were divided into 4 groups: control, dark control (SBDPiR690 only), light control (light only), and SBDPiR690-with light exposure (PDT). SBDPiR690 was intravenously injected into mice with colon-26 tumor model, followed by light illumination after 15 minutes postinjection using a light dose of 100 mW/cm^2 (FIGS. 28-29). Mice body weight and tumor response at high light doses (˜500 J cm^−2) were used for initial toxicity profiles.

The next data set deals with colon cancer tumors. Nature of the data set: H&E histology of tumors after SBDPiR690 PDT. As to conditions: 1 day post treatment. Type of data set: in vivo, Balb/c mice. The text has this:
To access the effect of SBDPiR690 on the tumor regions, tumor samples were collected from SBDPiR690 treated and control mice 1 day post treatment. The samples were fixed, embedded, sectioned, and stained using hematoxylin and eosin.

A short description of data set [2]: Real time whole body imaging of SBDPiR690 clearance and biodistribution. On the set-up: species or system mice. To be noted: mouse, in vivo. How it is done: The inherent fluorescent properties of SBDPiR690 enabled its use in real time whole body imaging to evaluate the clearance and biodistribution of the drug in organs, making it an applicable theranostic agent. The drug clears from organs and tissue by 24 hours, reducing the occurrence of skin photo-toxicity, which is a major problem among photosensitizers. […] These findings show the effectiveness of SBDPiR690 as a photosensitizer for use in PDT in clinical setting.

Data set [3] is described as follows: Singlet oxygen generation, indirect method of DPBF photooxidation. To be noted: DPBF photooxidation monitored at 410 nm. The method, then: Singlet oxygen generation and photostability: A singlet oxygen generation experiment on compound 53 using the indirect method of DPBF photooxidation was performed. There were strong similarities of the behavior of 53 towards DPBF with SBDPiR715. […] The photooxidation of DPBF was monitored by UV-vis spectrophotometer at 410 nm. […] Additionally, less than 30% of 53 photobleached under the harsh light illumination condition over a period of an hour, which is a strong evidence for photostability (FIG. 21).

The subject of another data set is colon-26 tumors. Nature of the data set: In vivo SBDPiR715-mediated PDT. The method, then: PS: To obtain an injection solution of SBDPiR715, the emulsifier Tween 80 was used. Tween 80 is a nonionic surfactant, frequently used in vivo as a solubilizing agent for highly lipophilic therapeutics. The formulation procedure required dissolving the PS in a minimal amount of Tween 80 (100 μl). The paste was allowed to stand overnight. 5% Dextrose in phosphate-buffered saline (PBS) solution was added, and the solution was sonicated for 1 hour. The resulting green solution was filtered through a 0.2 μm membrane filter. To ensure the accuracy of the concentration, which might vary due to partial solubility of the PS, the exact concentration was confirmed by UV-visible spectral analysis of the solutions prior to dosing.
Cells and Animal Models: Colon-26 mouse carcinoma cells were obtained from the American Type Culture Collection (ATCC) and cultured in minimum essential medium supplemented with 10% (v/v) fetal calf serum (FCS), 50 U ml^−1 penicillin, 50 μg ml^−1 streptomycin, and 1% (v/v) L-glutamine. The cells were maintained in 5% CO2 (v/v) and 21% O2 (v/v) at 37° C. All animal experiments were approved by IACUC of the University of Oklahoma Health Sciences Center. Female BALB/c mice were received from Charles River at 6-8 weeks old. Balb/c mice were shaved on the upper back and depilated with Nair (Carter-Wallace Inc., New York, N.Y., USA). Mice were anesthetized with an i.p. injection of ketamine/xylazine cocktail (90 mg kg^−1 ketamine and 10 mg kg xylazine). One million colon-26 cells were injected subcutaneously in one dorsal neck area suspended in […] PBS. Tumors grew predictably in all the mice and reached a size of 4- to 6-mm diameter in 5-7 days, or 8-11 mm in 14-16 days after injection, at which time they were used for PDT.
SBDPiR715 in 1% Tween 80-5% Dextrose solvent was injected i.p. at a dose of 3 μmol/kg (2.2 mg/kg) and 5 μmol/kg (3.7 mg/kg) in 0.2 ml solution. Tumors were irradiated 6 hours, 24 hours, or 32 hours after the injection using a Lumacare LC-122M with a fiber-optic light delivery system (Lumacare, Newport Beach, Calif., USA) emitting light at 700 nm (±40 nm). […] No evident temperature increase was detected at the site of irradiation. Mice were anesthetized as described above, and the tumor-bearing limb was positioned under the spot. Total dose of 200-300 mW/cm^2 was delivered for 30 minutes (360-540 J cm^−2). Mice bearing colon-26 tumors were also irradiated without having received injection of SBDPiR715. Another group of animals was treated with SBDPiR715 i.p. without irradiation. After irradiation, mice were allowed to recover in an animal cotton blanket until they resumed normal activity. A positive tumor response was ascribed to tumors that appeared flat blackened or reddened scarp and necrotic tissue within a few days after PDT. Animals were considered cured after complete tumor regression and the absence of a palpable tumor.

The nature of data set [4]: Drug biodistribution of SBDPiR715. Type of data set: in vivo, Balb/c mice. As to conditions: 5 μmol/kg i.p., 24 hours postinjection. The method, then: Mice were injected via i.p. with SBDPiR715 (5 μmol/kg/3.7 mg/kg). After 24 hours postinjection, the mice (n=3) were euthanized by CO2 inhalation. Tissues were excised from major organs and tumor. Collected tissues were rinsed with PBS and blotted dry. One hundred milligram of excised tissue was homogenized with CHCl3 (1 ml). The homogenates were centrifuged at 5160 g for 20 minutes, and the supernatant was used for fluorescence measurement (excitation at 710 nm and emission at 754 nm). The amount of compound in each sample was evaluated relative to the standard curve and expressed in “mg/g of tissue” unit.

A value given as a limit tells only on which side of the number the result lay.

On to `F[B-]1(F)n2c(cc3sc(-c4ccccc4)cc32)C(C(F)(F)F)=C2C=c3sc(-c4ccccc4)cc3=[N+]21` [SBDPiR690, 2,8-Di(phenyl)-1-trifluoromethyl-dithieno[2,3-b]-[3,2-g]-5,5-difluoro-5-bora-3a,4a-diaza-s-indacene], for which, in data set [1], the ε is on record as 120 000 M^−1 cm^−1, the λabs came to 688 nm and the λflu worked out at 700 nm. For the same molecule, in the data set on colon-26 tumor model (60 days post-treatment), the palpable tumor entry is listed as “no palpable tumor observed”. For the same molecule, the tumor volume result with colon-26 tumor model (SBDPiR690-induced PDT) was “elimination of tumors”. The tumor necrosis result in the data set on colon-26 tumor model (after 24-72 h, light fluence 150 J cm^−2) is on record as “Mass necrosis localized at the tumor region”. In addition, the survival in the data set on colon-26 tumor model (after 60 days, SBDPiR690-induced PDT) came to 100%. Moreover, in the data set with colon-26 tumor model (after PDT), the oedema and inflammation result is “oedema and inflammation was observable after 24 hours, but healed after a few days”. In addition, the body weight result in the data set with colon-26 tumor model (high light doses (~500 J cm^−2)) was “fairly constant”. Besides, the “tissue morphology (H&E)” value with colon cancer tumors is “necrosis associated with the treated mice”. Further, in data set [2], the “clearance from organs and tissue” value is no more than 24 h.
Turning to `COc1ccc(-c2sc3c(c2Br)=[N+]2C(=C(C(F)(F)F)c4cc5sc(-c6ccc(OC)cc6)c(Br)c5n4[B-]2(F)F)C=3)cc1` [SBDPiR715], the singlet oxygen generation result in data set [3] was “effective singlet oxygen generation”. Moreover, the extent of necrosis result in the data set on colon-26 tumors (6 and 24 hour drug-light interval) was “necrosis spread to neighboring skin regions”; with colon-26 tumors (32 hour drug-light interval), “confinement of necrosis to the tumor region”. In the data set with colon-26 tumors (after PDT, with remodeling of damaged tissue), this molecule had a tumor healing time of roughly 30 days. Moreover, the “tumor response to PDT” value in the data set with colon-26 tumors (all treatment groups (6, 24, 32 h drug-light interval), monitored for 90 days) is “complete tumor ablation”. In the data set on colon-26 tumors (treatment dose 5 μmol/kg (3.7 mg/kg) i.p.), the “weight loss / visual signs of toxicity” value is “No weight loss or other visual signs of toxicity”. The “onset of tumor necrosis after PDT” value in the data set with colon-26 tumors (treatment groups) is “mass necrosis and eschar within a day”. The organ biodistribution result in data set [4] is “a higher accumulation of SBDPiR715 was observed in the liver and spleen”.
